In patent US8877773B2, “Methods for treating chronic obstructive pulmonary disease” (Indiana University Research and Technology Corporation, priority 2009, dated 2014):
Entries after “also recorded” stand apart in the source; their conditions may differ.

Legend:
FG-7142 treated rats = assay: FG-7142-induced anxiety: open field, social interaction and elevated plus maze tests; assay type: in vivo, rat; details: Wistar rats
Description: All experiments were conducted on adult male Wistar rats (250-300 g) purchased from Harlan Laboratories (Indianapolis, Ind. USA) and were housed individually in plastic cages under standard environmental conditions (22° C.; 12/12 light/dark cycle; lights on at 7:00 A.M.) for 7-10 days prior to the surgical manipulations. Food and water were provided ad libitum.
The open-field arena covered an area of 90 cm×90 cm, with 40 cm high walls. The open-field arena was divided into a 6×6 grid of equally-sized squares using black tape (36 total squares) with 4 squares forming the centre; 12 squares forming the middle perimeter; and 20 squares forming the outer perimeter. The test started by placing a rat in the centre. The behavior of each rat in the open-field arena was recorded on video and scored afterwards by an observer blind to the experimental treatment of each rat. Time spent in each region of the open-field was recorded. In addition, locomotor activity was assessed by counting the number of times the rat's entire body (excluding tail) completely crossed into another square.
Following the OFT, the experimental rat was placed in an open field (0.9 m long×0.9 m wide with walls 0.3 m high) with an untreated novel partner rat. A video camera was fixed above the box, and all behavioral tests were videotaped. During the 5 min test the total amount of time the treated rat initiates interaction with the partner rat is recorded (sniffing, grooming etc.) as described previously. Videotaped sessions were scored at a later time by a SDF (blind to treatments) and a decrease in total interaction time was taken as an increase in “anxiety” like behavior.
Following the SI test, rats were place in the center area of the EPM where the two arms intersect. Unlike the SI test, the EPM measures many relevant anxiety related behaviors such as: no. of poke and full entries into and duration spent in closed versus open arm. […] Activity is measured using […] state of the art photobeams (16× beams and 16 Y beams) to provide the highest resolution system available (Automated EPM, Hamilton Kinder Scientific, San diego, CA).

control rats = assay: Baseline behavior and cardiovascular activity in control rats; assay type: in vivo, rat; details: control rats (no 1-AG or NaLac), 30 mg/kg i.p., 30 min following injection
Description: In experiments 4-6, rats were made panic vulnerable with 1-AG. 5 days after 1-AG onset, in a counterbalanced design, rats received intraperitoneal (i.p.) injections of treatment drug or vehicle 30 min prior to i.v. infusions. […] In experiment 5, baseline in an open field (OF) behavior test of anxiety was assessed (n=8) prior to 1-AG infusions. […] Immediately following the NaLac challenge, rats were placed in the OF test. […] In experiment 6,1-AG treated rats received an injection of an alternative ORX1 receptor antagonist (30 mg/kg SB408124 (N-(6,8-Difluoro-2-methyl-4-quinolinyl)-N′-(4-(dimethylamino)phenyl)urea), Tocris, in 0.2 ml/100 g volume DMSO, n=4) or vehicle (0.2 ml/100 g volume DMSO, n=6) 30 min prior to NaLac. In experiment 7, control rats (no 1-AG or NaLac treatment) were assessed in a SI test.
Adult male Sprague-Dawley rats were anesthetized and surgically implanted with telemetrical probes to measure cardiovascular activity prior to and during lactate infusions. […] 1960, Tocris, in 0.2 ml/100 g volume DMSO, n=7] or vehicle (0.2 ml/100 g volume DMSO, n=7). Cardiovascular activity and SI tests were monitored 30 min following injection at similar time points.

Cc1nc2ccc(NC(=O)Nc3ccnc4cccnc34)cc2o1 [SB334867, N-(2-Methyl-6-benzoxazolyl)-N′-1,5-naphthyridin-4-yl urea]
time in open arms of elevated plus maze (FG-7142 treated rats; FG-7142 7.5 mg/kg ip, with or without SB334867 30 mg/kg ip): higher time in open arms | FG-7142-induced anxiety behavior in the social interaction test (FG-7142 treated rats; SB334867 30 mg/kg ip followed by FG-7142 7.5 mg/kg ip): blocked | FG-7142 induced anxiety in the open field test (FG-7142 treated rats; SB334867 30 mg/kg ip followed by FG-7142 7.5 mg/kg ip, 15 min after FG-7142): appeared to have attenuated | HR in control rats (control rats): had no effect; also recorded: does not alter; also recorded: did not alter | MAP in control rats (control rats): had no effect; also recorded: does not alter; also recorded: did not alter
